These results are taken from patent US11466326B2, “Methods and kit for diagnosing and treating colorectal cancer based on AvrA and Wnt1” (The Board of Trustees of the University of Illinois, priority 2018, dated 2022).

Peptide text beside a SMILES is read from it. * marks the point of attachment. Cbz = O=C(OCc1ccccc1)*

Assay [1] has as its system Wnt1 protein. Nature of the assay: Wnt1 protein level by immunoblot after LPS treatment of human epithelial cells. It counts as cell-based. Particulars: cells treated with LPS, total cell lysates. As to the method:
(§1) Western Blot Analysis of Cell Line Proteins. Infected or control cells were rinsed twice in ice-cold HESS and lysed in protein loading buffer (50 mM Tris, pH 6.8, 100 mM dithiothreitol, 2% SDS, 0.1% bromophenol blue, and 10% glycerol). Equal amounts of protein were separated by SDS-polyacrylamide gel electrophoresis, transferred to nitrocellulose membranes, and analyzed by immunoblotting with anti-Wnt1 and anti-β-actin antibodies (Bioworld). The signals were visualized and quantitated using LI-COR Odyssey v3.0 software after probing the membranes with an infrared-conjugated secondary antibody.
(Immunoblotting shows a protein as a band on a membrane.)

In assay [2] the test system is Wnt1 protein. Nature of the assay: Wnt1 protein level after Salmonella infection in the presence of a proteasome inhibitor. It is filed as cell-based, human. To be noted: in the presence of MG132; compared with control cells without treatment. As to the method:
as §1

In the case of lipopolysaccharide [LPS], the “change in Wnt1 expression (decrease as seen with Salmonella)” value in assay [1] is listed as “not observed”.
Consider `CC(C)C[C@@H](C=O)NC(=O)[C@H](CC(C)C)NC(=O)[C@H](CC(C)C)NC(=O)OCc1ccccc1` [MG132] (Cbz-Leu-Leu-Leu-aldehyde), for which the “Wnt1 protein levels after Salmonella infection” value in assay [2] is on record as “stabilized”.
